This experiment deals with Rh18 complex spheroid viability, percent test/control. The experiment is described as follows: Anticancer human tumor Rh18 cell line growth inhibition [Asc].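 As to all read-outs here: spheroids exposed to compound for 7 days.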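 As to viability, T/C: 100% = DMSO vehicle control wells.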 As to conditions: for viability, T/C: stronger effect = lower value. In a few lines: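 Tumor cells were grown as complex spheroids with human endothelial cells (HUVEC) and human mesenchymal stem cells as stroma. Agents were tested alone and in combination, in half-log steps down from the clinical Cmax, or from 10 microM where Cmax was unknown.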

The structures appear in SMILES notation. Some results are limits rather than exact numbers.

As a reminder, the IC50 is the point on the concentration scale where inhibition reaches its midpoint. As a reminder, the viability, T/C is the result in the treated group divided by that in the control group, in per cent. On to `C=C(F)C(=O)N1CCN(c2nc(OCC3CCCN3C)nc3c2CCN(c2cccc4cccc(Cl)c24)C3)CC1CC#N` (stereo unspecified) + CNC(C)C(=O)NC1CN(S(=O)(=O)c2cccc(S(=O)(=O)N3CCC4CCC(C(=O)NC(c5ccccc5)c5ccccc5)N4C(=O)C(NC(=O)C(C)NC)C3)c2)CCC2CCC(C(=O)NC(c3ccccc3)c3ccccc3)N2C1=O, for which the IC50 by setting is: (curve of first compound, second compound 0.01 µM) 484 nM; (curve of first compound, second compound 0.0316 µM) 152 nM; (curve of first compound, second compound 0.1 µM) under 31.6 nM; (curve of first compound, second compound 0.316 µM) under 31.6 nM; (curve of first compound, second compound 1 µM) under 31.6 nM. Further, the viability, T/C reads like this: (second compound 0.01 µM, first compound 0.0316 µM) 71%; (second compound 0.01 µM, first compound 0.1 µM) 70.1%; (second compound 0.01 µM, first compound 0.316 µM) 53.5%; (second compound 0.01 µM, first compound 1 µM) 40.7%; (second compound 0.01 µM, first compound 3.16 µM) 16.2%; (second compound 0.01 µM, first compound 10 µM) 0.19%. Besides, the viability, T/C is 46.5% (second compound 0.0316 µM, first compound 0.0316 µM); 62.6% (second compound 0.0316 µM, first compound 0.1 µM); 39.8% (second compound 0.0316 µM, first compound 0.316 µM); 39.7% (second compound 0.0316 µM, first compound 1 µM); 14.8% (second compound 0.0316 µM, first compound 3.16 µM); 0.18% (second compound 0.0316 µM, first compound 10 µM). The viability, T/C reads like this: (second compound 0.1 µM, first compound 0.0316 µM) 41.6%; (second compound 0.1 µM, first compound 0.1 µM) 42.2%; (second compound 0.1 µM, first compound 0.316 µM) 43.8%; (second compound 0.1 µM, first compound 1 µM) 34.4%; (second compound 0.1 µM, first compound 3.16 µM) 10.1%; (second compound 0.1 µM, first compound 10 µM) 0.19%. The viability, T/C reads like this: (second compound 0.316 µM, first compound 0.0316 µM) 49.4%; (second compound 0.316 µM, first compound 0.1 µM) 49%; (second compound 0.316 µM, first compound 0.316 µM) 47.7%; (second compound 0.316 µM, first compound 1 µM) 39.2%; (second compound 0.316 µM, first compound 3.16 µM) 10.8%; (second compound 0.316 µM, first compound 10 µM) 0.19%. For the same compound, the viability, T/C was 42.3% (second compound 1 µM, first compound 0.0316 µM); 45.3% (second compound 1 µM, first compound 0.1 µM); 37.7% (second compound 1 µM, first compound 0.316 µM); 31.3% (second compound 1 µM, first compound 1 µM); 6.38% (second compound 1 µM, first compound 3.16 µM); 0.2% (second compound 1 µM, first compound 10 µM).
Take `Cc1c(S(C)(=O)=O)c(-c2cc(F)cc(N3CCN(c4ccc(NS(=O)(=O)c5ccc(NC(CCN6CCC(C(=O)OCCCP(=O)(O)O)CC6)CSc6ccccc6)c(S(=O)(=O)C(F)(F)F)c5)cc4)CC3)c2)c(-c2ccc(Cl)cc2)n1C(C)C` (stereo unspecified): the viability, T/C (compound 0.1 µM) is 14.1% [middle of 14 runs]; the viability, T/C (compound 0.316 µM) is 10% [middle of 14 runs]; the viability, T/C (compound 1 µM) was 9.12% [middle of 13 runs]; the viability, T/C (compound 3.16 µM) is 6.19% [middle of 14 runs]; the viability, T/C (compound 10 µM) was 5.39% [middle of 14 runs]. Further, the IC50 (compound alone, run of 10/11/2022) was under 100 nM.

Values taken from PubChem BioAssay AID1963431 (Molecular Pharmacology Branch, DTP, NCI, 2024).
